Results as given in PubChem BioAssay (NCI).
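All cell lines were grown in 96-well plates and treated with compound for 48 hours. TGI: total growth inhibition.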

Legend:
Test in all cases: growth of human tumour cells (NCI), 48 h
CCRF-CEM leukemia = test system: CCRF-CEM leukemia
HCC-2998 colon = test system: HCC-2998 colon
HCT-15 colon = test system: HCT-15 colon
HOP-62 NSCLC = test system: HOP-62 NSCLC
HS 578T breast = test system: HS 578T breast
K-562 leukemia = test system: K-562 leukemia
NCI-H522 lung = test system: NCI-H522 lung
RXF 393 renal = test system: RXF 393 renal
SF-539 CNS = test system: SF-539 CNS
SK-OV-3 ovarian = test system: SK-OV-3 ovarian
SN12C renal = test system: SN12C renal
UO-31 renal = test system: UO-31 renal

| Structure (SMILES) | TGI (CCRF-CEM leukemia) | TGI (HCC-2998 colon) | TGI (HCT-15 colon) | TGI (HOP-62 NSCLC) | TGI (HS 578T breast) | TGI (K-562 leukemia) | TGI (NCI-H522 lung) | TGI (RXF 393 renal) | TGI (SF-539 CNS) | TGI (SK-OV-3 ovarian) | TGI (SN12C renal) | TGI (UO-31 renal) |
| --- | --- | --- | --- | --- | --- | --- | --- | --- | --- | --- | --- | --- |
| N#CC1N(C(=O)c2ccc(F)cc2)c2ccccc2N1C(=O)c1ccc(F)cc1 | 87.2 µM | > 100 µM | > 100 µM | > 100 µM | > 100 µM | > 100 µM | > 100 µM | > 100 µM | > 100 µM | > 100 µM | > 100 µM | > 100 µM |
| C1OCN2c3nonc3N3COCN4c5nonc5N1C2C43 (centres undefined) | > 100 µM | > 100 µM | > 100 µM |  | > 100 µM | > 100 µM | > 100 µM | > 100 µM | > 100 µM | > 100 µM | > 100 µM | > 100 µM |
| Cc1ccc(S(=O)(=Nc2ccccc2)C(C(C)C)C(C)(C)Cl)cc1 (centres undefined) | > 50 µM | > 50 µM | > 50 µM | > 50 µM | > 50 µM | > 50 µM | > 50 µM | > 50 µM | > 50 µM | > 50 µM | > 50 µM | > 50 µM |
| Cc1cc2nc3n(c2cc1C)C(c1c(F)cccc1F)SC3 (centres undefined) | 64.3 µM | 47.8 µM | > 10 µM | 72 µM | 54.2 µM | 63.9 µM | 44.1 µM | 38.8 µM | 38.2 µM | > 100 µM | 41.9 µM | > 10 µM |
| CC(O)(c1ccccc1)c1nccc2ccccc12 (centres undefined) | > 100 µM | > 100 µM | > 100 µM | > 100 µM | > 100 µM | > 100 µM | > 100 µM | > 100 µM |  | > 100 µM | > 100 µM | > 100 µM |
| CCCCCC(/C=C/[C@@H]1CC(=O)C[C@H]1O[Si](C)(C)C(C)(C)C)OCOCCOC (some centres undefined) | > 100 µM | 29.8 µM | 15.2 µM | 31.7 µM | 8.04 µM | 6.43 µM | 4.01 µM | 5.45 µM | 5.98 µM | 32 µM | 24.1 µM | 6.44 µM |
| O=c1c2c([nH]c3cc4c(cc13)OCO4)-c1ccccc1CCC2 | > 50 µM | > 50 µM | > 50 µM | > 50 µM | > 50 µM | > 50 µM | > 50 µM | > 50 µM | > 50 µM | > 50 µM | > 50 µM | > 50 µM |
| COCC(=O)[C@]1(O)Cc2c(O)c3c(c(O)c2[C@@H](OC2CC(N)C(O)C(C)O2)C1)C(=O)c1c(OC)cccc1C3=O (some centres undefined) | 0.4 µM | 0.691 µM | 0.498 µM | 0.847 µM | 0.0892 µM | 0.785 µM | 0.124 µM | 0.267 µM | 0.312 µM | 4.03 µM | 3.42 µM | 0.231 µM |
| COc1cc2c3c(cc(Cl)nc3c1OC)C(O)(CC(C)=O)C(=O)N2 (centres undefined) | > 45.4 µM | > 60.5 µM | > 62.5 µM | > 59.8 µM | > 100 µM | > 95 µM | 26 µM | 30.7 µM | > 100 µM | > 72.8 µM | 36.1 µM | > 55.6 µM |
| CC1NOC(NS(=O)(=O)c2ccc(N=Nc3c(O)c(C(=O)O)cc4ccccc34)cc2)C1C (centres undefined) | > 100 µM | > 100 µM | > 100 µM | > 100 µM | > 100 µM | > 100 µM | > 100 µM | > 100 µM | > 100 µM | > 100 µM |  | > 100 µM |
| CCOC(=O)/C=C(/C(=O)OCC)n1c(=O)c(C)cn(C2CC(N=[N+]=[N-])C(CO)O2)c1=O (centres undefined) |  | 31.4 µM | > 100 µM | > 100 µM | > 100 µM | > 100 µM | > 100 µM | 57.2 µM | 47.9 µM | > 100 µM | > 100 µM | > 100 µM |
| O=C(CCc1cc(O)cc(O)c1)NCCc1ccc(O)c(O)c1 | 56.1 µM | > 100 µM | > 100 µM | > 100 µM | > 100 µM |  | > 100 µM | > 100 µM | > 100 µM | > 100 µM | > 100 µM | > 100 µM |
| CC[C@@]1(O)C(=O)OCc2c1cc1n(c2=O)Cc2c-1nc1ccccc1c2/C=N\NC(=O)C(N)CS (some centres undefined) |  | > 100 µM | > 100 µM |  | > 100 µM | > 100 µM | 25.9 µM | 10.2 µM | 0.806 µM | > 100 µM | > 22.8 µM | 14.7 µM |
| O=[N+]([O-])c1cccc2nc3ccccc3c(NCCC[N+]3([O-])CCCCC3)c12 | > 36.5 µM | 0.272 µM | > 100 µM | 3.55 µM | 4.02 µM | > 100 µM | 0.345 µM | 2 µM | 2.16 µM | 4.58 µM | 1.55 µM | > 58.6 µM |
| O=C1CCC2=C(CCC2)N1CCc1ccc2c(c1)OCO2 | > 100 µM | > 100 µM | > 100 µM | > 100 µM | > 100 µM | > 100 µM | > 100 µM | 52.5 µM | > 100 µM | > 100 µM | > 100 µM | > 100 µM |
| CCN(CC)C(=S)SNCCc1ccc(S(N)(=O)=O)cc1 | 36.8 µM | 50.6 µM | 38.5 µM | 26.3 µM | 53.1 µM | > 100 µM | 4.63 µM | 22.1 µM | 28.8 µM | > 73.1 µM | 27.2 µM | 27 µM |
| CC(C)OC(=O)c1ccc(CCC2=CC(=O)C(Br)=CC2=O)cc1 | 5.06 µM | 31.9 µM | 29.6 µM | 63.1 µM | 38.1 µM | 9.12 µM | 19.3 µM | 31.2 µM | 35.5 µM | > 100 µM | 31.1 µM | 27.1 µM |
| CC1CCC2c3c([nH]c4ccccc34)C3C(=O)N(C4CCCCC4)C(=O)C3C2C1 (centres undefined) | > 100 µM | > 100 µM | > 100 µM | 32.7 µM | 57.4 µM | 47.2 µM | > 100 µM | 28.9 µM | 62.6 µM | 42.5 µM | > 100 µM | 37.2 µM |
